Molecules are shown by their SMILES.

For 27 compounds, IC50 results are on record in US9034921B2, “Diphenylmethane derivatives as SGLT2 inhibitors” (GREEN CROSS CORPORATION, priority 2011, dated 2015).

This assay deals with human SGLT2 (Homo sapiens (Human), UniProt P31639). As to the kind of experiment: Inhibitory effects on human SGLT2 activities (14C-AMG uptake, sodium-dependent glucose transport assay). The format is cell-based. The settings on record: CHO cells stably expressing hSGLT2, 37° C., 2 h, single determinations. A digest of the protocol: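 CHO cells stably expressing hSGLT2 were preincubated 10 min at 37 °C in choline (Na+-free) buffer, then exposed 2 h at 37 °C to compound in Na+ uptake buffer with 8 μM 14C-AMG and 1 mM unlabeled AMG. Radioactivity was scintillation counted; IC50 came from nonlinear regression.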
human SGLT2, sequence (P31639 whole entry): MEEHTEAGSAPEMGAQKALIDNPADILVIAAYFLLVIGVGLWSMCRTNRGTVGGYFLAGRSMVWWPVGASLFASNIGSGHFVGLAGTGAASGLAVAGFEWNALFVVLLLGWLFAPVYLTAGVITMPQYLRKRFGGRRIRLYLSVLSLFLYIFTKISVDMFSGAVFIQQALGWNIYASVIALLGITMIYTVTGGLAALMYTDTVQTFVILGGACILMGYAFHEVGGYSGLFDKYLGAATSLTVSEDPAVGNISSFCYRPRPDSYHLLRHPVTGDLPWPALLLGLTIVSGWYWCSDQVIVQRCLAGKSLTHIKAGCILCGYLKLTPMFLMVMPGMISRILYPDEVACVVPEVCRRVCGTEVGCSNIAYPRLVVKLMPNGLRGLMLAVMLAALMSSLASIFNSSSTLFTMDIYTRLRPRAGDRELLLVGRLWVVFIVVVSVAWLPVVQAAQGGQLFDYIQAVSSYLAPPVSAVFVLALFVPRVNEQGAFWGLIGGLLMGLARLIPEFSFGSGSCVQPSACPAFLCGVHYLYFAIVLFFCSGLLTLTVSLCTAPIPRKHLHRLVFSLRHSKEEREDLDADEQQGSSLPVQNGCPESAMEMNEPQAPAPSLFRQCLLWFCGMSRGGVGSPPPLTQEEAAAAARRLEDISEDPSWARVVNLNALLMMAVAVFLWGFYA
Take `CCOc1ccc(Cc2cc([C@@H]3O[C@H](S(C)(=O)=O)[C@@H](O)[C@H](O)[C@H]3O)c(OC)cc2Cl)cc1` [Example E112, (2S,3R,4R,5S,6R)-2-(4-Chloro-5-(4-ethoxybenzyl)-2-methoxyphenyl)-6-(methylsulfonyl)tetrahydro-2H-pyran-3,4,5-triol]: the half-inhibitory concentration (IC50) is 7.44 nM.

In turn, `COc1cc([C@@H]2O[C@H](SC)[C@@H](O)[C@H](O)[C@H]2O)cc(Cc2ccc3c(c2)OCCO3)c1Cl` [Example E113, (2S,3R,4R,5S,6R)-2-(4-Chloro-3-((2,3-dihydrobenzo[b][1,4]dioxin-6-yl)methyl)-5-methoxyphenyl)-6-(methylthio)tetrahydro-2H-pyran-3,4,5-triol] came in with an IC50 of 0.551 nM.

`CCOc1ccc(Cc2cc([C@@H]3O[C@H](SC)[C@@H](O)[C@H](O)[C@H]3O)cc(OC)c2Cl)cc1` [Example E114, (2S,3R,4R,5S,6R)-2-(4-Chloro-3-(4-ethoxybenzyl)-5-methoxyphenyl)-6-(methylthio)tetrahydro-2H-pyran-3,4,5-triol]: the midpoint of inhibition, the IC50, lay at 0.308 nM.

In the case of `C=CCOc1cc(Cl)c(Cc2ccc(OC)cc2)cc1[C@@H]1O[C@H](OC)[C@@H](O)[C@H](O)[C@H]1O` [Example E115, (2S,3R,4R,5S,6S)-2-(2-(Allyloxy)-4-chloro-5-(4-methoxybenzyl)phenyl)-6-methoxytetrahydro-2H-pyran-3,4,5-triol], the IC50 came out at 7.06 nM.

Turning to `CN(C)c1ccc(Cc2cc([C@@H]3O[C@H](CO)[C@@H](O)[C@H](O)[C@H]3O)c3c(c2Cl)CCC3)cc1` [Example E116, (2S,3R,4R,5S,6R)-2-(7-Chloro-6-(4-(dimethylamino)benzyl)-2,3-dihydro-1H-inden-4-yl)-6-(hydroxymethyl)tetrahydro-2H-pyran-3,4,5-triol], it took 0.475 nM to reach half-maximal inhibition (IC50).

In turn, `C=Cc1ccc(Cc2cc([C@@H]3O[C@H](CO)[C@@H](O)[C@H](O)[C@H]3O)c3c(c2Cl)CCC3)cc1` [Example E117, (2S,3R,4R,5S,6R)-2-(7-Chloro-6-(4-vinylbenzyl)-2,3-dihydro-1H-inden-4-yl)-6-(hydroxymethyl)tetrahydro-2H-pyran-3,4,5-triol] yielded an IC50 of 0.742 nM.

Take `OC[C@H]1O[C@@H](c2cc(Cc3ccc(C4CC4)cc3)c(Cl)c3c2CCC3)[C@H](O)[C@@H](O)[C@@H]1O` [Example E118, (2S,3R,4R,5S,6R)-2-(7-Chloro-6-(4-cyclopropylbenzyl)-2,3-dihydro-1H-inden-4-yl)-6-(hydroxymethyl)tetrahydro-2H-pyran-3,4,5-triol]: half-maximal inhibition (IC50) required 0.678 nM.

`C=Cc1ccc(Cc2cc([C@@H]3O[C@H](CO)[C@@H](O)[C@H](O)[C@H]3O)c3c(c2Cl)CCO3)cc1` [Example E119, (2S,3R,4R,5S,6R)-2-(4-Chloro-5-(4-vinylbenzyl)-2,3-dihydrobenzofuran-7-yl)-6-(hydroxymethyl)tetrahydro-2H-pyran-3,4,5-triol]: the IC50 came out at 1.38 nM.

Consider `OC[C@H]1O[C@@H](c2cc(Cc3ccc(C4CC4)cc3)c(Cl)c3c2OCC3)[C@H](O)[C@@H](O)[C@@H]1O` [Example E120, (2S,3R,4R,5S,6R)-2-(4-Chloro-5-(4-cyclopropylbenzyl)-2,3-dihydrobenzofuran-7-yl)-6-(hydroxymethyl)tetrahydro-2H-pyran-3,4,5-triol], for which inhibition was half-maximal at 1.09 nM (IC50).

The compound `OC[C@H]1O[C@@H](c2cc(Cc3ccc(C4CC4)cc3)c(Cl)c3c2OCCC3)[C@H](O)[C@@H](O)[C@@H]1O` [Example E121, (2S,3R,4R,5S,6R)-2-(5-Chloro-6-(4-cyclopropylbenzyl)chroman-8-yl)-6-(hydroxymethyl)tetrahydro-2H-pyran-3,4,5-triol] gave an IC50 of 0.851 nM.

For `OC[C@H]1O[C@@H](c2cc(Cc3ccc(C(F)(F)F)cc3)c(Cl)c3c2OCC3)[C@H](O)[C@@H](O)[C@@H]1O` [Example E122, (2S,3R,4R,5S,6R)-2-(4-Chloro-5-(4-(trifluoromethyl)benzyl)-2,3-dihydrobenzofuran-7-yl)-6-(hydroxymethyl)tetrahydro-2H-pyran-3,4,5-triol], it took 1.97 nM to reach half-maximal inhibition (IC50).

`OC[C@H]1O[C@@H](c2cc(Cc3ccc(Cl)cc3)c(Cl)c3c2OCC3)[C@H](O)[C@@H](O)[C@@H]1O` [Example E123, (2S,3R,4R,5S,6R)-2-(4-Chloro-5-(4-chlorobenzyl)-2,3-dihydrobenzofuran-7-yl)-6-(hydroxymethyl)tetrahydro-2H-pyran-3,4,5-triol] gave an IC50 of 1.82 nM.

`OC[C@H]1O[C@@H](c2cc(Cc3ccc(C(F)(F)F)cc3)c(Cl)c3c2CCO3)[C@H](O)[C@@H](O)[C@@H]1O` [Example E124, (2S,3R,4R,5S,6R)-2-(7-Chloro-6-(4-(trifluoromethyl)benzyl)-2,3-dihydrobenzofuran-4-yl)-6-(hydroxymethyl)tetrahydro-2H-pyran-3,4,5-triol] showed an IC50 of 1.25 nM.

In the case of `CCOc1ccc(Cc2cc([C@@H]3O[C@H](C)[C@@H](O)[C@H](O)[C@H]3O)c3c(c2Cl)OCC3)cc1` [Example E125, (2S,3R,4S,5S,6R)-2-(7-Chloro-6-(4-ethoxybenzyl)-2,3-dihydrobenzofuran-4-yl)-6-methyltetrahydro-2H-pyran-3,4,5-triol], the IC50 came out at 0.728 nM.

On to `CCOc1ccc(Cc2cc([C@@H]3O[C@H](CF)[C@@H](O)[C@H](O)[C@H]3O)c3c(c2Cl)OCC3)cc1` [Example E126, (2S,3R,4R,5S,6S)-2-(7-Chloro-6-(4-ethoxybenzyl)-2,3-dihydrobenzofuran-4-yl)-6-(fluoromethyl)tetrahydro-2H-pyran-3,4,5-triol], for which the midpoint of inhibition, the IC50, lay at 3.21 nM.

Turning to `CCOc1ccc(Cc2cc([C@@H]3O[C@H](C(C)O)[C@@H](O)[C@H](O)[C@H]3O)c3c(c2Cl)OCC3)cc1` (stereo partly drawn) [Example E127, (2S,3R,4R,5S,6R)-2-(7-Chloro-6-(4-ethoxybenzyl)-2,3-dihydrobenzofuran-4-yl)-6-(1-hydroxyethyl)tetrahydro-2H-pyran-3,4,5-triol], it took 1.35 nM to reach half-maximal inhibition (IC50).

`CCOc1ccc(Cc2cc([C@@H]3O[C@H](CO)[C@@H](O)[C@H](O)[C@H]3O)c3c(c2C)OCC3)cc1` [Example E129, (2S,3R,4R,5S,6R)-2-(6-(4-Ethoxybenzyl)-7-methyl-2,3-dihydrobenzofuran-4-yl)-6-(hydroxymethyl)tetrahydro-2H-pyran-3,4,5-triol] gave an IC50 of 1.28 nM.

In turn, `COc1ccc(Cc2cc([C@@H]3O[C@H](CO)[C@@H](O)[C@H](O)[C@H]3O)c3c(c2Cl)OC(C)C3)cc1` (stereo partly drawn) [Example E130, (2S,3R,4R,5S,6R)-2-(7-Chloro-6-(4-methoxybenzyl)-2-methyl-2,3-dihydrobenzofuran-4-yl)-6-(hydroxymethyl)tetrahydro-2H-pyran-3,4,5-triol] returned an IC50 of 1.78 nM.

On to `COc1ccc(Cc2cc([C@@H]3O[C@H](CO)[C@@H](O)[C@H](O)[C@H]3O)c3c(c2Cl)CC(C)O3)cc1` (stereo partly drawn) [Example E131, (2S,3R,4R,5S,6R)-2-(4-Chloro-5-(4-methoxybenzyl)-2-methyl-2,3-dihydrobenzofuran-7-yl)-6-(hydroxymethyl)tetrahydro-2H-pyran-3,4,5-triol], for which the IC50 was 1.02 nM.

The compound `CCc1ccc(Cc2cc([C@@H]3O[C@H](CO)[C@@H](O)[C@H](O)[C@H]3O)c3c(c2Cl)CC(C)O3)cc1` (stereo partly drawn) [Example E132, (2S,3R,4R,5S,6R)-2-(4-Chloro-5-(4-ethylbenzyl)-2-methyl-2,3-dihydrobenzofuran-7-yl)-6-(hydroxymethyl)tetrahydro-2H-pyran-3,4,5-triol] showed an IC50 of 0.706 nM.

Take `CC1Cc2c(Cl)c(Cc3ccc(C4CC4)cc3)cc([C@@H]3O[C@H](CO)[C@@H](O)[C@H](O)[C@H]3O)c2O1` (stereo partly drawn) [Example E133, (2S,3R,4R,5S,6R)-2-(4-Chloro-5-(4-cyclopropylbenzyl)-2-methyl-2,3-dihydrobenzofuran-7-yl)-6-(hydroxymethyl)tetrahydro-2H-pyran-3,4,5-triol]: the IC50 was 1.11 nM.

`CCCc1ccc(Cc2cc([C@@H]3O[C@H](CO)[C@@H](O)[C@H](O)[C@H]3O)c3c(c2Cl)CC(C)O3)cc1` (stereo partly drawn) [Example E134, (2S,3R,4R,5S,6R)-2-(4-Chloro-2-methyl-5-(4-propylbenzyl)-2,3-dihydrobenzofuran-7-yl)-6-(hydroxymethyl)tetrahydro-2H-pyran-3,4,5-triol] showed an IC50 of 0.885 nM.

Take `CCOc1ccc(Cc2cc([C@@H]3O[C@H](CO)[C@@H](O)[C@H](O)[C@H]3O)c3c(c2Cl)OC(C)C3)cc1` (stereo partly drawn) [Example E135, (2S,3R,4R,5S,6R)-2-(7-Chloro-6-(4-ethoxybenzyl)-2-methyl-2,3-dihydrobenzofuran-4-yl)-6-(hydroxymethyl)tetrahydro-2H-pyran-3,4,5-triol]: the IC50 amounted to 1.65 nM.

In the case of `CCc1ccc(Cc2cc([C@@H]3O[C@H](CO)[C@@H](O)[C@H](O)[C@H]3O)c3c(c2Cl)OC(C)C3)cc1` (stereo partly drawn) [Example E136, (2S,3R,4R,5S,6R)-2-(7-Chloro-6-(4-ethylbenzyl)-2-methyl-2,3-dihydrobenzofuran-4-yl)-6-(hydroxymethyl)tetrahydro-2H-pyran-3,4,5-triol], the IC50 came to 0.835 nM.

Compound `C=Cc1ccc(Cc2cc([C@@H]3O[C@H](CO)[C@@H](O)[C@H](O)[C@H]3O)c3c(c2Cl)OC(C)C3)cc1` (stereo partly drawn) [Example E137, (2S,3R,4R,5S,6R)-2-(7-Chloro-2-methyl-6-(4-vinylbenzyl)-2,3-dihydrobenzofuran-4-yl)-6-(hydroxymethyl)tetrahydro-2H-pyran-3,4,5-triol] yielded a concentration for half-maximal inhibition (IC50) of 1 nM.

The compound `CC1Cc2c([C@@H]3O[C@H](CO)[C@@H](O)[C@H](O)[C@H]3O)cc(Cc3ccc(C4CC4)cc3)c(Cl)c2O1` (stereo partly drawn) [Example E138, (2S,3R,4R,5S,6R)-2-(7-Chloro-6-(4-cyclopropylbenzyl)-2-methyl-2,3-dihydrobenzofuran-4-yl)-6-(hydroxymethyl)tetrahydro-2H-pyran-3,4,5-triol] came in with an IC50 of 1.13 nM.

Compound `Cc1ccc(Cc2cc([C@@H]3O[C@H](CO)[C@@H](O)[C@H](O)[C@H]3O)c3c(c2Cl)CCC3)cc1` [Example E139, (2S,3R,4R,5S,6R)-2-(7-Chloro-6-(4-methylbenzyl)-2,3-dihydro-1H-inden-4-yl)-6-(hydroxymethyl)tetrahydro-2H-pyran-3,4,5-triol] registered a concentration for half-maximal inhibition (IC50) of 0.808 nM.

As usually defined, the IC50 is the concentration needed to halve the response being measured. Read a low IC50 as greater potency in that assay.
